According to patent US7902361B2, “Pyrimidin-4-yl-3, 4-thione compounds and their use in therapy” (Cyclacel Limited, priority 2003, dated 2011):
Where two headings read alike, the source gives them in different places. Marks after values point to notes of the source that are not given here.

Tests used:
[1] = Oral glucose tolerance in male ZDF fa/fa rats; type: in vivo, rat; conditions: for % Glucose Decrease AUC (−270–180 min) / % Glucose decrease-AUC (0–180 min): ZDF fa/fa rats, oral glucose tolerance, 30 mg/kg per os twice (−270 and −30 min)
Procedure: The ability of example compounds of the present invention to improve glucose metabolism was tested in 12-13 week old male ZDF fa/fa rats. The test animals (10-15 mmol/L fasting glucose level) were dosed twice at 30 mg/kg and the glucose challenge was given at time 0. […] Most of these blood levels were below the EC50 values determined in cellular assays.
12-13 weeks old male ZDF fa/fa rats were used to study the effect of example compounds on oral glucose tolerance. […] Body weight was recorded three times per week. Test compounds were dissolve in a formulation of 10% DMSO, 5% Tween, 5% Span 20, 30% PEG 400 and 50% water (v/v) to provide final solutions at 5 mg/mL concentration. Each experimental group contained 7 animals. After an 16 h overnight fast the test compounds were administered at 30 mg/kg per os twice (at −270 min and −30 min) before the oral glucose tolerance test was commenced (2 g glucose/kg per os as a 40% solution introduced via feeding tube). A control group was dosed in a similar manner with the vehicle only. Blood sampling for blood glucose measurement (20 μL blood) was performed at −270, 0, 15, 30, 60, 90, 120 and 180 min. Mixed venous blood was collected from the tail vein into 20-μL glass capillaries, which were placed in a standard tube filled with 1 mL solution for hemolysis. Glucose levels were measured using the glucose oxidase procedure (Super G Glukosemessgeraet; Dr Mueller Geraetebau, Freital, Germany). In addition, 50 μL blood samples were taken at 30 and 60 min after the glucose dose, placed in heparinized tubes, which were then frozen immediately in liquid nitrogen. The bioanalytical method used employed isocratic elution liquid chromatography—tandem mass spectrometry in electrospray positive ion multiple reaction monitoring mode.

[2] = biological target: T1, GSK3α (Homo sapiens, UniProt P49840); test: GSK3α in vitro kinase assay; type: biochemical; conditions: recombinant human GSK3α, 100 μM ATP
T1 construct: purchased Upstate
T1 sequence (P49840 whole entry): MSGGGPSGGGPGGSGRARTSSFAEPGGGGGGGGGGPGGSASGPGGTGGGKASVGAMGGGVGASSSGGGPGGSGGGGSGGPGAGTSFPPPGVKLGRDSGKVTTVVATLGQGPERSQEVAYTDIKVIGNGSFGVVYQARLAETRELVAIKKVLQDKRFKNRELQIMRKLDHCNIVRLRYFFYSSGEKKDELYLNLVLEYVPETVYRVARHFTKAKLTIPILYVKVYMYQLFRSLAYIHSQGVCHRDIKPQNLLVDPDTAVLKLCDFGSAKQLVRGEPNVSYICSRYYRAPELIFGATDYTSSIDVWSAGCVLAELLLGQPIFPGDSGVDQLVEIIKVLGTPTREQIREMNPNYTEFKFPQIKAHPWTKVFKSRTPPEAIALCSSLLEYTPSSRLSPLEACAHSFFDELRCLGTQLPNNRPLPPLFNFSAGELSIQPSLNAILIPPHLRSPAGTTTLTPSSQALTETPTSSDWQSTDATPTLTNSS
Procedure: Both isoforms of GSK3 (α and β) are involved in the regulation of glycogen synthase activity—key enzyme in the glycogen metabolism. The inhibitory potency of example compounds was determined using in vitro kinase assays with recombinant human GSK3-α and -β; the IC50 values determined are presented in Table 9.
A 10-point titration was set up to determine the IC50 values of selected example compounds against GSK3β. Assays were performed using 96-well microtiter plates with a final volume of 25 μL per well. Each assay contained 1.5 units of GSK3β(New England Biolabs), 200 μM CREB phosphopeptide ([…]pSYR, Alta Biosciences), 20 mM Tris HCl pH7.5, 5 mM DTT, 15 mM MgCl2 supplemented with 100 μM ATP and 0.5 μCi of [γ-^32P] ATP plus or minus inhibitor in 2% DMSO. Assays were carried out for 30 minutes at 30° C. before stopping the reaction by the addition of an equal volume of 75 mM aqueous phosphoric acid. Samples were then spotted onto a p81 filterplate (Whatman) and a vacuum was applied. Wells were washed 3 times with 200 μL of dilute aqueous phosphoric acid before the addition of 50 μL Microscint 40 per well. Incorporation of radioactivity was determined on a Topcount microplate scintillation counter (Packard).
GSK3α (Upstate) was assayed exactly as described above except that 1 ng of enzyme was added per assay point.

[3] = biological target: T2, GSK3β (Homo sapiens, UniProt P49841); test: GSK3β in vitro kinase assay; type: biochemical; conditions: recombinant human GSK3β, 100 μM ATP
T2 construct: purchased New England Biolabs
T2 sequence (P49841 whole entry): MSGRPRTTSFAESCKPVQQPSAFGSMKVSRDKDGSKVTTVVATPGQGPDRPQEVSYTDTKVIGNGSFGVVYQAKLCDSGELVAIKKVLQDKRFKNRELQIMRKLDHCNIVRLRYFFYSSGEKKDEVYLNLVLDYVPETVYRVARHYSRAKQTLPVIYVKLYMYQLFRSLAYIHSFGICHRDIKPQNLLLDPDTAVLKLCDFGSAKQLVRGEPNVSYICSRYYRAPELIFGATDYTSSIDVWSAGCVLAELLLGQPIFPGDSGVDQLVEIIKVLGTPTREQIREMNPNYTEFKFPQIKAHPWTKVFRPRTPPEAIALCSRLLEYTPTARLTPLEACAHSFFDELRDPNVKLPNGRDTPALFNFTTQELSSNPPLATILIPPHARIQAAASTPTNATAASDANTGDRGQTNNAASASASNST
Outline: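 Radiometric filter-binding assay with GSK3β (1.5 units), 200 μM CREB phosphopeptide, 100 μM ATP plus [γ-32P]ATP, in 20 mM Tris HCl pH7.5, 5 mM DTT, 15 mM MgCl2, 2% DMSO; 30 min at 30° C, stopped with phosphoric acid. 32P incorporation counted by scintillation; IC50 from 10-point titration.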

[4] = system: glycogen synthase; test: Glycogen synthase activation in mouse adipocytes; type: cell-based; conditions: for Max FI (% to LiCl): maximum fold induction normalised to 40 mM LiCl
Procedure: 3T3-L1 mouse pre-adipocytes were grown in DMEM medium supplemented with 10% foetal calf serum (FCS) and penicillin/streptomycin until fully confluent. Cell differentiation was initiated by the addition of 0.5 mM IBMX (2-isobutyl-1-methylxanthine), 0.25 μM dexamethasone and 1 μg/mL insulin into the growth media. The differentiation medium was replaced after 4 days and 7 days. After the initiation of differentiation the cells were grown for an additional 3 days in DMEM, 10% FCS and antibiotics.
HEK293 cells, mouse adipocytes or rat myotubes were treated in 10-cm Petri dishes with different concentrations of GSK3 inhibitor example compounds for 90 minutes. At the end of the treatment period the cells were washed and scraped in ice cold PBS buffer supplemented with 20 mM NaF. The cells were pelleted by centrifugation and lysed in 300 μL buffer (50 mM.HEPES pH 7.5, 10 mM EDTA, 100 mM NaF, 5 mM DTT, protease inhibitor cocktail (Sigma)). After incubation for 30 min on ice the samples were cleared by centrifugation. The activity of glycogen synthase was determined in the soluble fraction at two different concentrations of […]—low (0.1 mM) and high (10 mM). The reaction was carried out for 30 min (buffer: 50 mM Tris pH 7.8, 20 mM EDTA, 25 mM NaF, 5 mM DTT). The reaction mixture (total volume of 90 μL) contained 1% glycogen, 0.3 mM UDP-glucose and 0.06 μCi ^14C-UDP-glucose. Reaction was stopped by transfer of 70 μL to a GFC 96-well filter plate, containing 140 μL 100% ethanol and the glycogen was allowed to precipitate for 1 h at 4° C. The wells were washed 2 times with 200 μL 66% ethanol and than allowed to dry. Subsequently, 100 μL of scintillation liquid was added, and plates were sealed and counted in a Packard Topcounter. Glycogen synthase activation was calculated as the ratio between the incorporation of labelled ^14C-UDP-glucose in glycogen at low and high concentration of […] (fractional velocity).
The ability of GSK3 inhibitors to activate glycogen synthase was determined in HEK293 cells, mouse adipocytes and rat myotubed. The compounds tested activated glycogen synthase in all three cellular systems with EC50 values in the sub-micromolar to low micromolar concentration range. Most of them exceeded the stimulation induced by 40 mM LiCl (the highest compound concentration used in the assay was 20 μM).

[5] = male ZDF fa/fa rats, 30 mg/kg per os twice, oral glucose tolerance test

SMILES | % Glucose Decrease AUC (−270–180 min) [1] [%] | % Glucose decrease-AUC (0–180 min) [1] | IC50 [2] [nM] | IC50 [3] [nM] | EC50 ([4]; Adipocyte) [nM] | Max FI (% to LiCl) [4] | glucose AUC [1, 5] | decreased blood glucose levels [1, 5] | EC50 [4] [nM]
CCNS(=O)(=O)c1cccc(Nc2nccc(-c3sc(=O)n(C)c3C)n2)c1 [Compound 62, 3-[4-(3,4-Dimethyl-2-oxo-2,3-dihydro-thiazol-5-yl)-pyrimidin-2-ylamino]-N-ethyl-benzenesulfonamide] | 9 | 3.6% | 27 | 22 | 432 ± 179 | 234 % to LiCl | – | – | –
CC(=O)Nc1cc(Nc2nccc(-c3sc(=O)n(C)c3C)n2)cc(C(F)(F)F)c1 [Compound 64, N-{3-[4-(3,4-Dimethyl-2-oxo-2,3-dihydro-thiazol-5-yl)-pyrimidin-2-ylamino]-5-trifluoromethyl-phenyl}-acetamide] | 9 | 8% | 2.4 | 3 | 148 ± 70 | 143 % to LiCl | moderate decrease | – | –
COCCNS(=O)(=O)c1cccc(Nc2nccc(-c3sc(=O)n(C)c3C)n2)c1 [Compound 67, 3-[4-(3,4-Dimethyl-2-oxo-2,3-dihydro-thiazol-5-yl)-pyrimidin-2-ylamino]-N-(2-methoxy-ethyl)-benzenesulfonamide] | 14 | 7.5% | 17.8 | 23 | 4830 ± 4600 | 177 % to LiCl | moderate decrease | – | –
Cc1c(-c2ccnc(Nc3cc(Br)cc(C(F)(F)F)c3)n2)sc(=O)n1C [Compound 68, 5-[2-(3-Bromo-5-trifluoromethyl-phenylamino)-pyrimidin-4-yl]-3,4-dimethyl-3H-thiazol-2-one] | 5 | 8.4* % | 136 | 61 | 9550 ± 7400 | 50 % to LiCl | moderate decrease | statistically significant | –
Cc1c(-c2ccnc(Nc3cccc(S(=O)(=O)NCCO)c3)n2)sc(=O)n1C [Compound 75, 3-[4-(3,4-Dimethyl-2-oxo-2,3-dihydro-thiazol-5-yl)-pyrimidin-2-ylamino]-N-(2-hydroxy-ethyl)-benzenesulfonamide] | 13 | 6.4% | 31 | 25 | 2190 ± 400 | 181 % to LiCl | – | – | –
CNc1cc(Nc2nccc(-c3sc(=O)n(C)c3C)n2)cc(C(F)(F)F)c1 [Compound 76, 3,4-Dimethyl-5-[2-(3-methylamino-5-trifluoromethyl-phenylamino)-pyrimidin-4-yl]-3H-thiazol-2-one] | 0 | 0.5% | 42 | 18.9 | – | 196 % to LiCl | – | – | 1110 ± 530
